# Reference: PMC7916174, “Preliminary Study of a 1,5-Benzodiazepine-Derivative Labelled with Indium-111 for CCK-2 Receptor Targeting” (Molecules, 2021)
# Legend:
# CCK-2R = test system: CCK-2R; parameters: method as in PMID 24325469; conditions: cited from earlier work
# A549 cells = assay: [111In]In-IP-001 cellular uptake; assay type: cell-based, human
# Description: A549 epithelial lung cancer cells were seeded in 6-well plates (20,000/cm^2) and allowed to adhere overnight. The following day, the medium was removed and radiotracer uptake was studied by incubating 2 × 10^5 cells at 37 °C in 2 mL of culture medium added to 30 µL (ca. 2 MBq, 1.35 μg, 1 nmol) of [^111In]In-IP-001. Uptake was monitored at 2, 4, 8, and 24 h. At these time points, the medium was removed and cells were washed twice with 2 mL of ice-cold PBS. Finally, cells were detached with 2 mL of a 0.25% trypsin/EDTA solution at 37 °C and centrifuged to separate the supernatant from the cells pellet. The radioactivity associated with the pellets was measured in a γ-spectrometer and corrected for decay. All experiments were performed in triplicate.
# [1] = Stability of the radiotracer in NaCl 0.9%, HEPES and EDTA (radio-TLC / RP-HPLC); assay type: physicochemical
# Description: (§1) HPLC analyses on indium-111-labelled IP-001 were performed on an S1125 HPLC pump system, and the column used was an Acclaim 120 C18, 3 × 150 mm, 3 µm 120 Å pore size; flow: 0.6 mL/min; gradient: minutes 0–2 A: 70% B: 30%; minutes 2–12 B: 30% -> 95%; and minutes 12–15 B: 95% -> 30%, where A: H2O (0.1% TFA) and B: MeCN. Detection was carried out with an S3245 UV–Vis and an S3700 gamma detector system.
# (§2) TLC plates used for the assessment of the preparative reactions were silica gel 60 […] (0.2 mm, Merck) with the eluents mentioned for the specific product in the following paragraphs. Column chromatography was carried out with silica gel 60 (0.063–0.100 mm, Merck), and elution was performed using the eluent described for the specific preparations. The radioactive incorporation and stability of [^111In]In-IP-001 were assessed on ITLC-SG plates, developed in a 1 M ammonium acetate/MeOH 1:1 v/v solution, by using a flatbed-imaging scanner (Cyclone, Perkin Elmer).
# (§3) The stability of [^111In]In-IP-001 solutions (0.5 mL, 10 nmol, 18 MBq) was assessed by means of radio-TLC or RP-HPLC at various temperatures (4, 24, and 37 °C) and in the presence of different media up to 120 h after preparation. The studies were performed by incubating the radiotracer with (i) a 0.9% NaCl solution at a 9:1 ratio, (ii) a 0.1 M HEPES solution at a 9:1 ratio, (iii) a 0.1 M EDTA solution at 9:1 and 1:1 ratios, (iv) human serum (HS) at a 9:1 ratio, and (v) HB at a 1:1 ratio. After TLC analysis, samples incubated with HB were centrifuged at 3000 rpm for 10 min to precipitate blood cells, and 200 μL of a MeCN/H2O/TFA 50/45/5 v/v/v solution was added to 400 μL of the supernatant. After another centrifugation under the same conditions, the supernatant was discarded and the residual radioactivity due to the proteins bound fraction was measured in a dose calibrator. Lipophilicity calculation were performed in octanol–water with the shaking flask method, as already described elsewhere. All experiments were performed in triplicate.
# A549 xenograft tumors [2] = assay: Blocking experiment with 50-fold molar excess of unlabeled IP-001, ex vivo biodistribution; assay type: in vivo, BALB/c nude mice
# Description: (§4) Homozygous female BALB/c nude J:NU (JAX stock number 007850) mice were purchased from Jackson Laboratories (Bar Harbor, ME, USA). Mice were 4 weeks old at arrival, and they were hosted in an IVC system (Smart Flow AHU, Tecniplast) with autoclaved rodent bedding hosting 3–4 mice per cage. Mice were fed with autoclaved rodent food and water ad libitum. The inoculation of A549 tumor cell line was performed by the subcutaneous injection of 5 × 10^6 cells/mouse in 100 uL of […] medium (RPMI added of 10% FBS, 1% penicillin-streptomycin, 1% glutamine) into the right shoulder. […] Inoculation was carried out at 5 weeks of age after one week in the facility for acclimatization purposes. Mice were monitored every 2–3 days by measuring weight and tumor dimensions with an electronic caliper. For this purpose, two perpendicular dimensions were noted and volumes of the tumors were calculated with the formula 0.5 × L × W^2, where L is the measurement of the longest axis and W is the measurement of the axis perpendicular to L, in millimeters.
# Tumors were allowed to grow for about five weeks until they reached 0.5–1.0 cm of size in one dimension (i.e., around 50–250 mm^3 volume), and then mice were divided in two groups. The experimental group (n = 5) was intravenously injected (retro-orbital venous sinus) with 150 μL of a [^111]In-IP-001 solution (2.06 nmol, 7.4MBq), while the blocked group (n = 5) was injected with 150 μL of a [^111]In-IP-001 solution added to a 50-fold molar excess of cold ligand. All injections were performed with the animals under isoflurane anesthesia (1–3%), using 30G ultra-fine insulin syringes. […]
# (§5) For biodistribution studies, the injections were performed as described above, and 3 mice for both groups were sacrificed at 4 and 24 h post injection using 2% isoflurane. Main organs and tissues were removed, weighed, and counted together with blood samples, muscle, and urine by a γ-counter system (Cobra II from Packard, Canberra, ME, USA). […]
# [3] = Stability of the radiotracer in human blood; assay type: in vitro ADME; conditions: for Stability (%), amount of intact radiotracer: Human blood
# Description: as §1, §2, §3
# A549 xenograft tumors [4] = assay: Ex vivo biodistribution in A549 tumor-bearing mice; parameters: species or system BALB/c nude mice
# Description: as §4
# Tumors were allowed to grow for about five weeks until they reached 0.5–1.0 cm of size in one dimension (i.e., around 50–250 mm^3 volume), and then mice were divided in two groups. The experimental group (n = 5) was intravenously injected (retro-orbital venous sinus) with 150 μL of a [^111]In-IP-001 solution (2.06 nmol, 7.4MBq), while the blocked group (n = 5) was injected with 150 μL of a [^111]In-IP-001 solution added to a 50-fold molar excess of cold ligand. All injections were performed with the animals under isoflurane anesthesia (1–3%), using 30G ultra-fine insulin syringes. Real-time, live, and fast dynamic screening studies were performed right after injection and on selected time points post-injection, on a dedicated desktop, mouse-sized, planar scintigraphic system (γ-eye^TM by BIOEMTECH, Athens, Greece). The system supports fusion with a digital mouse photograph for anatomical co-registration. The main detector is based on two position-sensitive photomultiplier tubes coupled to a CsI(Na) pixelated scintillator and a medium-energy lead collimator with parallel hexagonal holes that supports a range of SPECT isotopes. The system’s field of view is 5 × 10 cm^2, with a spatial resolution of ~2 mm. […] This allowed for a fast test, right after injection, to check whether the injection was successful, and on later time points to quickly evaluate the bio-kinetics of the tracer. Tomographic SPECT/CT imaging was performed with y-CUBE^TM and x-CUBE^TM (Molecubes, Belgium), respectively, at the same selected time points post-injection. The SPECT system provides a spatial resolution of 0.6 mm for mouse imaging and of 1.5 mm for rat imaging. The CT system performs a spiral scan, it can provide images with 100 um resolution, and images were acquired with 50 kVp. Mouse imaging was performed by keeping the mice anaesthetized under isoflurane and under a constant temperature of 37 °C. SPECT scans were acquired with a 45 min duration, and each SPECT scan was followed by a high-resolution CT scan for co-registration purposes. The SPECT data were reconstructed through a maximum-likelihood expectation-maximization (MLEM) algorithm, with a 500 μm voxel size and […]. CT data were reconstructed through an iterative image space reconstruction algorithm (ISRA) algorithm with a 100 μm voxel size. Tomographic images are presented through maximum intensity projection (MIP) view). The experimental group was imaged at 2, 4, 8, and 24 h post-injection with both imaging systems, while the blocked group was imaged at 4 and 24 h.
# as §5
# [5] = Lipophilicity, octanol-water shaking flask method; assay type: physicochemical
# Description: as §3
# [6] = Stability of the radiotracer in human serum; assay type: in vitro ADME; conditions: for Stability (%), amount of intact radiotracer: Human serum
# Description: as §1, §2, §3
structure (smiles),measurement,setting,value
"CC(C)(C)C(=O)CN1C(=O)[C@H](NC(=O)Nc2cccc(C(=O)O)c2)CN(C2CCCCC2)c2ccccc21 [Z-360, Nastorazepide]",selectivity relative to CCK-1R,CCK-2R; CCK-2R versus CCK-1R,672
same,Kd,CCK-2R; CCK-2R,0.47 nM
CC(C)(C)C(=O)CN1C(=O)C(NC(=O)Nc2cccc(C(=O)NCCCCCCNC(=O)CCC(=O)NCCCOCCOCCOCCCNC(=O)CN3CCN(CC(=O)[O-])CCN(CC(=O)[O-])CCN(CC(=O)[O-])CC3)c2)CN(C2CCCCC2)c2ccccc21.[111In+3] (stereo not shown) [[^111In]In-IP-001],maximal accumulation (percent of the added radioactivity per million cells),"A549 cells; 2 MBq, 4 h of incubation",around 5%
same,incubation time of maximal accumulation,A549 cells; incubation up to 24 h,4 h
same,"Stability (%), amount of intact radiotracer","[1]; EDTA (0.1 M), 4 h",98 ± 1%
same,"Stability (%), amount of intact radiotracer","[1]; EDTA (0.1 M), 8 h",98 ± 1%
same,"Stability (%), amount of intact radiotracer","[1]; EDTA (0.1 M), 24 h",96 ± 2%
same,"Stability (%), amount of intact radiotracer","[1]; EDTA (0.1 M), 72 h",96 ± 3%
same,"Stability (%), amount of intact radiotracer","[1]; HEPES (0.1 M), 4 h",98 ± 2%
same,"Stability (%), amount of intact radiotracer","[1]; HEPES (0.1 M), 8 h",97 ± 3%
same,"Stability (%), amount of intact radiotracer","[1]; HEPES (0.1 M), 24 h",97 ± 3%
same,"Stability (%), amount of intact radiotracer","[1]; HEPES (0.1 M), 72 h",96 ± 1%
same,"Stability (%), amount of intact radiotracer","[1]; NaCl 0.9%, 4 h",98 ± 2%
same,"Stability (%), amount of intact radiotracer","[1]; NaCl 0.9%, 8 h",98 ± 2%
same,"Stability (%), amount of intact radiotracer","[1]; NaCl 0.9%, 24 h",97 ± 2%
same,"Stability (%), amount of intact radiotracer","[1]; NaCl 0.9%, 72 h",97 ± 2%
same,difference in radioactivity in organs and tumors between normal and blocked groups,A549 xenograft tumors [2]; 4 h post injection,no significant differences
same,"tumor uptake, blocked group","A549 xenograft tumors [2]; 24 h post injection, with 50-fold molar excess of unlabeled IP-001, n = 3",0.84 ± 0.33 % IA/g
same,lower uptake in the tumor tissue in the blocking setting,"A549 xenograft tumors [2]; blocked versus experimental group, 24 h",45%
same,"Stability (%), amount of intact radiotracer",[3]; 4 h,98 ± 2%
same,"Stability (%), amount of intact radiotracer",[3]; 8 h,95 ± 1%
same,"Stability (%), amount of intact radiotracer",[3]; 24 h,95 ± 2%
same,"Stability (%), amount of intact radiotracer",[3]; 72 h,93 ± 1%
same,"Stability (%), amount of intact radiotracer",[3]; 120 h,93 ± 2%
same,percentage of intact compound,"[3]; human blood (HB), after 48 h",higher than 95%
same,spleen uptake,A549 xenograft tumors [4]; 4 h post injection (abstract),3.88 ± 0.36 % ID/cc
same,tumor uptake,"A549 xenograft tumors [4]; 4 h post injection, i.v., n = 3",2.36 ± 0.26 % IA/g
same,blood uptake,"A549 xenograft tumors [4]; 4 h post injection, n = 3",4.21 ± 0.40 % IA/g
same,intestines uptake,"A549 xenograft tumors [4]; 4 h post injection, n = 3",2.39 ± 0.28 % IA/g
same,kidneys uptake,"A549 xenograft tumors [4]; 4 h post injection, n = 3",6.99 ± 0.97 % IA/g
same,liver uptake,"A549 xenograft tumors [4]; 4 h post injection, n = 3",8.25 ± 2.21 % IA/g
same,lungs uptake,"A549 xenograft tumors [4]; 4 h post injection, n = 3",2.82 ± 0.21 % IA/g
same,pancreas uptake,"A549 xenograft tumors [4]; 4 h post injection, n = 3",2.03 ± 0.16 % IA/g
same,spleen uptake,"A549 xenograft tumors [4]; 4 h post injection, n = 3",3.88± 0.36 % IA/g
same,intestines uptake,A549 xenograft tumors [4]; 24 h post injection,0.55 ± 0.29 % IA/g
same,kidneys uptake,A549 xenograft tumors [4]; 24 h post injection,3.11 ± 0.52 % IA/g
same,liver uptake,A549 xenograft tumors [4]; 24 h post injection,3.55 ± 1.17 % IA/g
same,pancreas uptake,A549 xenograft tumors [4]; 24 h post injection,0.26 ± 0.04 % IA/g
same,tumor to blood (T/B) ratio,A549 xenograft tumors [4]; 24 h post injection,10.19
same,tumor to kidneys ratio,A549 xenograft tumors [4]; 24 h post injection,0.48
same,tumor to liver ratio,A549 xenograft tumors [4]; 24 h post injection,0.47
same,tumor to muscle (T/M) ratio,A549 xenograft tumors [4]; 24 h post injection,15.72
same,tumor/intestines ratio,A549 xenograft tumors [4]; 24 h post injection,2.76
same,tumor/lungs ratio,A549 xenograft tumors [4]; 24 h post injection,2.02
same,tumor/pancreas ratio,A549 xenograft tumors [4]; 24 h post injection,5.85
same,tumor uptake,"A549 xenograft tumors [4]; 24 h post injection, n = 3",1.52 ± 0.71 % IA/g
same,accumulated radiotracer still retained in tumor tissue,A549 xenograft tumors [4]; 24 h post-injection relative to 4 h,65%
same,decrease of the signal over 24 h,"A549 xenograft tumors [4]; intestines, lungs, and pancreas, from 4 h to 24 h",more than 73%
same,partition coefficient (LogP),[5],0.45
same,"Stability (%), amount of intact radiotracer",[6]; 4 h,98 ± 2%
same,"Stability (%), amount of intact radiotracer",[6]; 8 h,96 ± 3%
same,"Stability (%), amount of intact radiotracer",[6]; 24 h,95 ± 3%
same,"Stability (%), amount of intact radiotracer",[6]; 72 h,94 ± 2%
same,"Stability (%), amount of intact radiotracer",[6]; 120 h,93 ± 1%
same,percentage of intact compound,"[6]; human serum, after 48 h",higher than 95%
